Results on 1 molecule are retold here after US11015061B2, “Phthalocyanine-based compound and uses of same” (YAMAMOTO CHEMICALS, INC., priority 2017, dated 2021).

What all share (assay type): physicochemical
The nature of series [1]: Absorption spectrum of toluene solution (maximum absorption, gram absorption coefficient). As for the experimental part:
A toluene solution of the compound obtained in this way had maximum absorption at 734.0 nm, and the gram absorption coefficient thereof was 1.21×10^5 mL/g·cm. The absorption spectrum chart thereof is illustrated in FIG. 1.

A short description of series [2]: Solubility in organic solvent (cyclopentanone). The note with it: about 10 wt % dispersion, room temperature, 0.2 μm filter; no residue = 10 wt % or more. The protocol:
The solubility of the phthalocyanine compound with respect to cyclopentanone was measured by the following method.
Cyclopentanone was added to about 1 g of the phthalocyanine compound such that the total weight thereof became about 10 g, and the obtained solution was irradiated with ultrasonic waves for about 30 minutes and then stirred for 2 hours at room temperature, thereby preparing a dispersion liquid of about 10 wt %.
The dispersion liquid was filtered through a membrane filter (0.2 μm), the substance obtained by filtration was dried for 1 hour in a drier at 60° C., and then the weight of the substance obtained by filtration was measured.
The solubility of the phthalocyanine compound in a solvent is expressed by the following equation. Solubility (wt %)=(W0−W1)/W0
W0 represents the correct weight of the phthalocyanine not yet being treated, and W1 represents the weight of the substance obtained by filtration (dissolved phthalocyanine compound residue) having been dried.

Series [3] can be described thus: Visible light transmittance of chloroform solution. The note with it: spectrum converted to transmittance 10% at near-infrared maximum absorption wavelength. The protocol: The visible light transmittance of the phthalocyanine-based compound of the present invention and the comparative example compounds was measured by the following measurement method.
Each of the phthalocyanine compounds ([…]) and approximately 90 mL of chloroform were put into a 100 mL volumetric flask, and the solution in the flask was irradiated with ultrasonic waves for 30 minutes and left to stand for 2 hours at room temperature. Then, chloroform was added thereto such that the meniscus of the solution matched up with the calibration mark on the volumetric flask, thereby preparing a 10 mg/L phthalocyanine solution. The prepared solution was put into a 1 cm×1 cm cell made of PYREX (registered trademark), and the absorption spectrum thereof was measured using a spectrophotometer (produced by Hitachi, Ltd.: Spectrophotometer U-3500).
The absorption spectrum measured as above was converted such that the absorbance became 1.0, that is, the transmittance became 10% at the maximum absorption wavelength in a near-infrared range, thereby obtaining a transmission spectrum. […] At 460 nm, the transmittance of the compound of the present invention was approximately the same as the transmittance of Comparative Examples 1 and 2.

`COCCCCCCCCc1ccc(CCCCCCCCOC)c2c1-c1nc-2nc2[n-]c(nc3nc(nc4[n-]c(n1)c1c(CCCCCCCCOC)ccc(CCCCCCCCOC)c41)-c1c(CCCCCCCCOC)ccc(CCCCCCCCOC)c1-3)c1c(CCCCCCCCOC)ccc(CCCCCCCCOC)c21.[O]=[V+2]` [Comparative Example Compound (b), reference compound] yielded a maximum absorption in series [1] of 737.5 nm. The same molecule yielded a gram absorption coefficient in series [1] (at maximum absorption) of 105000 mL/g/cm. Further, the “Solubility to cyclopentanone (wt %)” value in series [2] is no more than 1% wt %. In addition, in series [3], the “Transmittance (%) 460 nm” value is recorded as 97.8% and the “Transmittance (%) 610 nm” value was 87.9%.
